Source: patent publication US12391686B2, “Compounds and uses thereof” (Foghorn Therapeutics Inc., priority 2019, dated 2025)

Each compound was assayed against T1, Nanoluciferase-BRD9 fusion protein (3×FLAG-NLuc-BRD9) in SYO-1 cells (Homo sapiens, UniProt Q9H8M2) (assay: SYO1 BRD9 NanoLuc Degradation Assay). Details: Table 6B; SYO-1 cells expressing 3×FLAG-NLuc-BRD9, 6 hours incubation, 1 μM top dose; read-out: SYO1 BRD9-NanoLuc degradation IC50.
T1 construct: expressed in transfected cells; host or cells: SYO-1
T1 sequence (Q9H8M2 1-597): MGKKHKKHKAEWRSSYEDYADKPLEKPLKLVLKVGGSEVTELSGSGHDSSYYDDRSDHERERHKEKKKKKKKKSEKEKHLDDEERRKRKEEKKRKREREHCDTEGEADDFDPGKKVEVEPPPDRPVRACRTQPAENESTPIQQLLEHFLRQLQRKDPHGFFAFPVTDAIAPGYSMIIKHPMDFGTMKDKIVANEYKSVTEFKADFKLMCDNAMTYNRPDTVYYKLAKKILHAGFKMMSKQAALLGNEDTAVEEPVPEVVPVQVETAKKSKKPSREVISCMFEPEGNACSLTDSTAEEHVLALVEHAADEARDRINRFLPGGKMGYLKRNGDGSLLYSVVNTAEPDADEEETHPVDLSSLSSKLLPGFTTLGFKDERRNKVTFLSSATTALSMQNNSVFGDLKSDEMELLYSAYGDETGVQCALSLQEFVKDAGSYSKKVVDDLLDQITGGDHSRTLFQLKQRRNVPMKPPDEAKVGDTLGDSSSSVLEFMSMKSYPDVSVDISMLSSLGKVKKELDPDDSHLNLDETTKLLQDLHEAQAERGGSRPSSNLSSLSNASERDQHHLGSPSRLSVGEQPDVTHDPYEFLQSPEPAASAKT
Assay type: cell-based
Method: Procedure: A stable SYO-1 cell line expressing 3×FLAG-NLuc-BRD9 was generated. On day 0 cells were seeded in 30 μL media into each well of 384-well cell culture plates. The seeding density was 8000 cells/well. On day 1, cells were treated with 30 nL DMSO or 30 nL of 3-fold serially DMSO-diluted compounds (10 points in duplicates with 1 μM as final top dose). Subsequently plates were incubated for 6 hours in a standard tissue culture incubator and equilibrated at room temperature for 15 minutes. Nanoluciferase activity was measured by adding 15 μL of freshly prepared Nano-Glo Luciferase Assay Reagent (Promega N1130), shaking the plates for 10 minutes and reading the bioluminescence using an EnVision reader.
Results: The Inhibition % was calculated using the following formula: % Inhibition=100×(LumHC−Lumsample)/(LumHC−LumLC). DMSO treated cells are employed as High Control (HC) and 1 μM of a known BRD9 degrader standard treated cells are employed as Low Control (LC).

DC50	SMILES
10 to 100 nM	COc1cc(-c2cn(C)c(=O)c3cnc(N(C)C)cc23)cc(OC)c1CN1CCC(CCNC(=O)NCc2ccc3c(c2)C(=O)N(C2CCC(=O)NC2=O)C3=O)CC1 (centres unmarked) [Compound D74]
< 10 nM	COc1cc(-c2cn(C)c(=O)c3cnc(N(C)C)cc23)cc(OC)c1CN1CCC(C(C)N2CCC3(CC2)CC(Oc2ccc4c(c2)C(=O)N(C2CCC(=O)NC2=O)C4=O)C3)CC1 (centres unmarked) [Compound D75]
< 10 nM	COc1cc(-c2cn(C)c(=O)c3cnc(N(C)C)cc23)cc(OC)c1CN1CCN([C@H](C)COc2ccc3c(c2)C(=O)N(C2CCC(=O)NC2=O)C3=O)CC1 (some centres unmarked) [Compound D77]
< 10 nM	COc1cc(-c2cn(C)c(=O)c3cnc(N(C)C)cc23)cc(OC)c1CN1CCN(C(C)(C)COc2ccc3c(c2)C(=O)N(C2CCC(=O)NC2=O)C3=O)CC1 (centres unmarked) [Compound D78]
< 10 nM	COc1cc(-c2cn(C)c(=O)c3cnc(N(C)C)cc23)cc(OC)c1CN1CCN(C(C)(C)COc2cccc3c2C(=O)N(C2CCC(=O)NC2=O)C3=O)CC1 (centres unmarked) [Compound D81]
< 10 nM	COc1cc(-c2cn(C)c(=O)c3cnc(N(C)C)cc23)cc(OC)c1CN1CCN(C[C@@H](C)Oc2ccc3c(c2)C(=O)N(C2CCC(=O)NC2=O)C3=O)CC1 (some centres unmarked) [Compound D82]
10 to 100 nM	COc1cc(-c2cn(C)c(=O)c3cnc(N(C)C)cc23)cc(OC)c1CN1CCC(C[N+]2(C)CCC3(CC2)CC(Oc2ccc4c(c2)C(=O)N(C2CCC(=O)NC2=O)C4=O)C3)CC1 (centres unmarked) [Compound D84]
< 10 nM	COc1cc(-c2cn(C)c(=O)c3cnc(N(C)C)cc23)cc(OC)c1CN1CCC(CCN2CCN(c3ccc4c(c3)C(=O)N(C3CCC(=O)N(COC(=O)OC(C)C)C3=O)C4=O)CC2)CC1 (centres unmarked) [Compound D85]
< 10 nM	COc1cc(-c2cn(C)c(=O)c3cnc(N(C)C)cc23)cc(OC)c1CN1Cc2cc3c(cc2C1)C(=O)N(C1CCC(=O)NC1=O)C3=O (centres unmarked) [Compound D86]
10 to 100 nM	COc1cc(-c2cn(C)c(=O)c3cnc(N(C)C)cc23)cc(OC)c1CN1CCC(CCN2CCN(C3CCC(=O)NC3=O)C(=O)C2)CC1 (centres unmarked) [Compound D88]
10 to 100 nM	COc1cc(-c2cn(C)c(=O)c3cnc(N(C)C)cc23)cc(OC)c1CN1CC(N2CCN(C3CCC(=O)NC3=O)C(=O)C2)C1 (centres unmarked) [Compound D94]
< 10 nM	COc1cc(-c2cn(C)c(=O)c3cnc(N(C)C)cc23)cc(OC)c1CN1CCC(C(N2CCC3(CC2)CC(Oc2ccc4c(c2)C(=O)N(C2CCC(=O)NC2=O)C4=O)C3)C(F)(F)F)CC1 (centres unmarked) [Compound D99]
< 10 nM	COc1cc(-c2cn(C)c(=O)c3cnc(N(C)C)cc23)cc(OC)c1CN1CCC(CN2CCC3(CC2)CC(Oc2ccc4c(c2)CN(C2CCC(=O)NC2=O)C4=O)C3)CC1 (centres unmarked) [Compound D103]
< 10 nM	COc1cc(-c2cn(C)c(=O)c3cnc(N(C)C)cc23)cc(OC)c1CN1CCN(CCC2CCN(c3ccc4c(c3)C(=O)N(C3CCC(=O)NC3=O)C4=O)CC2)CC1 (centres unmarked) [Compound D105]
< 10 nM	COc1cc(-c2cn(C)c(=O)c3cnc(N(C)C)cc23)cc(OC)c1CN1CCN(C2(COc3ccc4c(c3)C(=O)N(C3CCC(=O)NC3=O)C4=O)CC2)CC1 (centres unmarked) [Compound D109]
< 10 nM	CCc1cc(-c2cn(C)c(=O)c3cnc(N(C)C)cc23)cc(OC)c1CN1CCC(CN2CCC3(CC2)CC(Oc2ccc4c(c2)C(=O)N(C2CCC(=O)NC2=O)C4=O)C3)CC1 (centres unmarked) [Compound D112]

Second part, the compound before the results:

SMILES	DC50
COc1cc(-c2cn(C)c(=O)c3cnc(N(C)C)cc23)cc(OC)c1CN1CCN([C@@H](C)COc2ccc3c(c2)C(=O)N(C2CCC(=O)NC2=O)C3=O)CC1 (some centres unmarked) [Compound D76]	< 10 nM
COc1cc(-c2cn(C)c(=O)c3cnc(N4CCC4)cc23)cc(OC)c1CN1CCC(C(=O)N2CCC3(CC2)CC(Oc2ccc4c(c2)C(=O)N(C2CCC(=O)NC2=O)C4=O)C3)CC1 (centres unmarked) [Compound D79]	< 10 nM
COc1cc(-c2cn(C)c(=O)c3cnc(N4CCC4)cc23)cc(OC)c1CN1CCC(CN2CCC3(CC2)CC(Oc2ccc4c(c2)C(=O)N(C2CCC(=O)NC2=O)C4=O)C3)CC1 (centres unmarked) [Compound D80]	< 10 nM
COc1cc(-c2cn(C)c(=O)c3cnc(N(C)C)cc23)cc(OC)c1CN1CCN(C[C@H](C)Oc2ccc3c(c2)C(=O)N(C2CCC(=O)NC2=O)C3=O)CC1 (some centres unmarked) [Compound D83]	< 10 nM
COc1cc(-c2cn(C)c(=O)c3cnc(N(C)C)cc23)cc(OC)c1CN1CCC(n2cc([C@H](C)Oc3ccc4c(c3)C(=O)N(C3CCC(=O)NC3=O)C4=O)nn2)CC1 (some centres unmarked) [Compound D87]	< 10 nM
COc1cc(-c2cn(C)c(=O)c3cnc(N(C)C)cc23)cc(OC)c1CN1CC(C#Cc2ccc3c(c2)C(=O)N(C2CCC(=O)NC2=O)C3=O)C1 (centres unmarked) [Compound D89]	< 10 nM
COc1cc(-c2cn(C)c(=O)c3cnc(N(C)C)cc23)cc(OC)c1CN1CCC2(CCN(c3ccc4c(c3)C(=O)N(C3CCC(=O)NC3=O)C4=O)C2)C1 (centres unmarked) [Compound D90]	< 10 nM
COc1cc(-c2cn(C)c(=O)c3cnc(N(C)C)cc23)cc(OC)c1CN1CCC2(C1)CN(c1ccc3c(c1)C(=O)N(C1CCC(=O)NC1=O)C3=O)C2 (centres unmarked) [Compound D91]	< 10 nM
COc1cc(-c2cn(C)c(=O)c3cnc(N(C)C)cc23)cc(OC)c1CN1CCC2CN(c3ccc4c(c3)C(=O)N(C3CCC(=O)NC3=O)C4=O)C21 (centres unmarked) [Compound D92]	< 10 nM
COc1cc(-c2cn(C)c(=O)c3cnc(N(C)C)cc23)cc(OC)c1CN1CCC2C(C1)CN2c1ccc2c(c1)C(=O)N(C1CCC(=O)NC1=O)C2=O (centres unmarked) [Compound D93]	< 10 nM
COc1cc(-c2cn(C)c(=O)c3cnc(N(C)C)cc23)cc(OC)c1CN1CCN(C2(COc3ccc4c(c3)C(=O)N(C3CCC(=O)NC3=O)C4=O)COC2)CC1 (centres unmarked) [Compound D95]	< 10 nM
COc1cc(-c2cn(C)c(=O)c3cnc(N(C)C)cc23)cc(OC)c1CN1CCN(CC(C)(C)Oc2ccc3c(c2)C(=O)N(C2CCC(=O)NC2=O)C3=O)CC1 (centres unmarked) [Compound D96]	< 10 nM
COc1cc(-c2cn(C)c(=O)c3cnc(N(C)C)cc23)cc(OC)c1CN1CC(C(C)(C)N2CCC3(CC2)CN(c2ccc4c(c2)C(=O)N(C2CCC(=O)NC2=O)C4=O)C3)C1 (centres unmarked) [Compound D97]	< 10 nM
COc1cc(-c2cn(C)c(=O)c3cnc(N(C)C)cc23)cc(OC)c1CN1CC(Oc2ccc3c(c2)C(=O)N(C2CCC(=O)NC2=O)C3=O)C1 (centres unmarked) [Compound D98]	< 10 nM
COc1cc(-c2cn(C)c(=O)c3cnc(N(C)C)cc23)cc(OC)c1CN1CCN(C2(COc3cccc4c3C(=O)N(C3CCC(=O)NC3=O)C4=O)COC2)CC1 (centres unmarked) [Compound D100]	< 10 nM
COc1cc(-c2cn(C)c(=O)c3cnc(N(C)C)cc23)cc(Cl)c1CN1CCC(CN2CCC3(CC2)CC(Oc2ccc4c(c2)C(=O)N(C2CCC(=O)NC2=O)C4=O)C3)CC1 (centres unmarked) [Compound D101]	< 10 nM
COc1cc(-c2cn(C)c(=O)c3cnc(N(C)C)cc23)cc(Cl)c1CN1CCC(C(=O)N2CCC3(CC2)CC(Oc2ccc4c(c2)C(=O)N(C2CCC(=O)NC2=O)C4=O)C3)CC1 (centres unmarked) [Compound D102]	< 10 nM
COc1cc(-c2cn(C)c(=O)c3cnc(N(C)C)cc23)cc(OC)c1CN1CCC(c2ccc3c(c2)C(=O)N(C2CCC(=O)NC2=O)C3=O)CC1 (centres unmarked) [Compound D104]	< 10 nM
CNc1cc2c(-c3cc(OC)c(CN4CCN(CCC5CCN(c6ccc7c(c6)C(=O)N(C6CCC(=O)NC6=O)C7=O)CC5)CC4)c(OC)c3)cn(C)c(=O)c2cn1 (centres unmarked) [Compound D106]	< 10 nM
COc1cc(-c2cn(C)c(=O)c3cnc(N(C)C)cc23)cc(OC)c1CN1CCC(CN2CCC3(CC2)CC(Oc2ccc4c(c2)C(=O)N(C2CCC(=O)NC2=O)C4)C3)CC1 (centres unmarked) [Compound D107]	< 10 nM
COc1cc(-c2cn(C)c(=O)c3cnc(N(C)C)cc23)cc(OC)c1CN1CCC(C(C)(C)N2CCC3(CC2)CC(Oc2ccc4c(c2)C(=O)N(C2CCC(=O)NC2=O)C4=O)C3)CC1 (centres unmarked) [Compound D108]	< 10 nM
COc1cc(-c2cn(C)c(=O)c3cnc(N(C)C)cc23)cc(OC)c1CN1CC(C(C)N2CCC3(CC2)CN(c2ccc4c(c2)C(=O)N(C2CCC(=O)NC2=O)C4=O)C3)C1 (centres unmarked) [Compound D110]	< 10 nM
COc1cc(-c2cn(C)c(=O)c3cnc(N(C)C)cc23)cc(OC)c1CN1CCC(C(=O)N2CCC3(CC2)CC(Oc2ccc4c(c2)C(=O)N(C2CCC(=O)NC2=O)C4=O)C3)C(OC)C1 (centres unmarked) [Compound D111]	< 10 nM
COc1cc(-c2cn(C)c(=O)c3cnc(N(C)C)cc23)cc(OC)c1CN1CCN(c2ccc3c(c2)C(=O)N(C2CCC(=O)NC2=O)C3)CC1 (centres unmarked) [Compound D113]	< 10 nM
COc1cc(-c2cn(C)c(=O)c3cnc(N(C)C)cc23)cc(OC)c1CN1CCN(c2ccc3c(c2)CN(C2CCC(=O)NC2=O)C3=O)CC1 (centres unmarked) [Compound D114]	< 10 nM
